This note sets out measurements from patent US7709511B2, “Benzothiazolone derivatives” (AstraZeneca AB, priority 2005, dated 2010).

The target of assay [1] is T1, Adrenergic β2 (Homo sapiens, UniProt P07550).
T1 construct: endogenous in cells; host or cells: H292 cells
Description: Adrenergic β2 mediated cAMP production in H292 cells (AlphaScreen cAMP detection). It counts as cell-based. As to conditions: for EC50: cAMP, test compounds incubated 10 minutes at room temperature, 300 μM rolipram; for Intrinsic Activity: fraction relative to the maximum activity determined for formoterol, 10 minutes incubation. The procedure:
Adrenergic β2 Mediated cAMP Production
H292 cells were grown in RPMI (Roswell Park Memorial Institute) medium containing, 10% (v/v) FBS (foetal bovine serum) and 2 mM L-glutamine. Cells were grown in 225 cm2 flasks containing 25 mL media in a humidified incubator at 37° C., 5% CO2. Cells were harvested from the flask and passaged at a 1 in 10 dilution once per week.
The media from flasks containing H292 cells was removed, rinsed with 10 mL PBS (phosphate buffered saline) and replaced with 10 mL Accutase™ cell detachment solution. Flasks were incubated for 15 minutes in a humidified incubator at 37° C., 5% CO2. The cell suspension was counted and the cells re-suspended in RPMI media (containing 10% (v/v) FBS and 2 mM L-glutamine) at 0.05×10^6 cells per mL. 5000 cells in 100 μL were added to each well of a tissue-culture-treated 96-well plate and the cells incubated overnight in a humidified incubator at 37° C., 5% CO2. The culture media was removed, washed twice with 100 μL assay buffer and replaced with 50 μL assay buffer. Cells were rested at room temperature for 20 minutes after which time 25 μL of rolipram (1.2 mM made up in assay buffer containing 2.4% (v/v) dimethylsulphoxide) was added. Cells were incubated with rolipram for 10 minutes after which time test compounds (made up as ×4 concentrated stocks in assay buffer containing 4% (v/v) dimethylsulphoxide) were added and the cells were incubated for 10 minutes at room temperature. Final rolipram concentration in the assay was 300 μM and final vehicle concentration was 1.6% (v/v) dimethylsulphoxide. The reaction was stopped by removing supernatants, washing once with 100 μL assay buffer and replacing with 50 μL lysis buffer. The cell monolayer was frozen at −80° C. for 30 minutes (or overnight).
(§1) AlphaScreen™ cAMP Detection
(§2) The concentration of cAMP (cyclic adenosine monophosphate) in the cell lysate was determined using the AlphaScreen™ methodology. The frozen cell plate was thawed for 20 minutes on a plate shaker then 10 μL of the cell lysate was transferred to a 96-well white plate. 40 μL of mixed AlphaScreen™ detection beads (containing equal volumes of donor beads (pre-incubated with biotinylated cAMP in the dark for 30 minutes) and acceptor beads), was added to each well and the plate incubated at room temperature for 10 hours in the dark. The AlphaScreen™ signal was measured using an EnVision spectrophotometer (Perkin-Elmer Inc.) with the recommended manufacturer's settings. cAMP concentrations were determined by reference to a calibration curve determined in the same experiment using standard cAMP concentrations (made up in lysis buffer in a 96-well tissue-culture-treated plate and frozen/thawed alongside the test samples) and detected using the same protocol. Concentration response curves for agonists were constructed to determine both the pEC50 and Intrinsic Activity. Intrinsic Activity was expressed as a fraction relative to the maximum activity determined for formoterol in each experiment.

Assay [2] deals with T1, Adrenergic β2. The experiment in a line: Alternative adrenergic β2 mediated cAMP production in H292 cells (AlphaScreen cAMP detection). It counts as cell-based. As to conditions: for EC50: cAMP, test compounds incubated 60 minutes at room temperature, 300 μM rolipram, read-out: β2 pEC50 (converted); for β2 Int Act: fraction relative to the maximum activity determined for formoterol, 60 minutes incubation. Here is the method: Alternative Adrenergic β2 Mediated cAMP Production Cell Preparation
H292 cells were grown in 225 cm2 flasks incubator at 37° C., 5% CO2 in RPMI medium containing, 10% (v/v) FBS (foetal bovine serum) and 2 mM L-glutamine.
Adherent H292 cells were removed from tissue culture flasks by treatment with Accutase™ cell detachment solution for 15 minutes. Flasks were incubated for 15 minutes in a humidified incubator at 37° C., 5% CO2. Detached cells were re-suspended in RPMI media (containing 10% (v/v) FBS and 2 mM L-glutamine) at 0.05×10^6 cells per mL. 5000 cells in 100 μL were added to each well of a tissue-culture-treated 96-well plate and the cells incubated overnight in a humidified incubator at 37° C., 5% CO2. The culture media was removed and cells were washed twice with 100 μL assay buffer and replaced with 50 μL assay buffer (HBSS solution containing 10 mM HEPES pH7.4 and 5 mM glucose). Cells were rested at room temperature for 20 minutes after which time 25 μL of rolipram (1.2 mM made up in assay buffer containing 2.4% (v/v) dimethylsulphoxide) was added. Cells were incubated with rolipram for 10 minutes after which time test compounds were added and the cells were incubated for 60 minutes at room temperature. The final rolipram concentration in the assay was 300 μM and final vehicle concentration was 1.6% (v/v) dimethylsulphoxide. The reaction was stopped by removing supernatants, washing once with 100 μL assay buffer and replacing with 50 μL lysis buffer. The cell monolayer was frozen at −80° C. for 30 minutes (or overnight).
as §1
as §2, with “using” for “using the”, “pre-incubated” for “(containing equal volumes of donor beads (pre-incubated”, “cAMP,” for “cAMP in the dark for 30 minutes) and acceptor beads),”, “concentrations.” for “concentrations (made up in lysis buffer in a 96-well tissue-culture-treated plate and frozen/thawed alongside the test samples) and detected using the same protocol.”, “constructed and data was fitted to a four parameter logistic equation” for “constructed”

Structures are written as SMILES. Where a name gives a salt, the structure may show the parent alone.

T1 sequence (P07550 whole entry): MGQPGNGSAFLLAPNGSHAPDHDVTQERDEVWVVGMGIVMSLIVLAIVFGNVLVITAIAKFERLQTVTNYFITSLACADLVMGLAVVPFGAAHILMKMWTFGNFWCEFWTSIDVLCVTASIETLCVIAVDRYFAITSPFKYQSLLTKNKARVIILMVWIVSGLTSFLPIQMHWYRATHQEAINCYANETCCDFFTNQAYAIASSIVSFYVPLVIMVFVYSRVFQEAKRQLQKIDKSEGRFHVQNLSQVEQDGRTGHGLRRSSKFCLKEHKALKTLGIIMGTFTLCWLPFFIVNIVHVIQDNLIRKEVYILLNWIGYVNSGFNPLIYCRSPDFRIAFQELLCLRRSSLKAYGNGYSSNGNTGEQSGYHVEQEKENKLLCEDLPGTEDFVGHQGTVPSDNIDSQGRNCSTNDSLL

For the molecule `O=C(CCOCCc1ccccc1)N(CCCNCCc1ccc(O)c2[nH]c(=O)sc12)CCc1ccccc1` [Example 8, N-(3-{[2-(4-Hydroxy-2-oxo-2,3-dihydro-1,3-benzothiazol-7-yl)ethyl]amino}propyl)-3-(2-phenylethoxy)-N-(2-phenylethyl)propanamide], on Adrenergic β2 [1], the EC50 was 0.00126 µM and the “Intrinsic Activity” value turned out to be 0.7.

With `CCN(CC)CCN(CCNCCc1ccc(O)c2[nH]c(=O)sc12)C(=O)CCOCCc1ccc(O)cc1` [Example 19, N-[2-(Diethylamino)ethyl]-N-(2-{[2-(4-hydroxy-2-oxo-2,3-dihydro-1,3-benzothiazol-7-yl)ethyl]amino}ethyl)-3-[2-(4-hydroxyphenyl)ethoxy]propanamide ditrifluoroacetate], at Adrenergic β2 [2], the EC50 was 0.0126 µM and the “β2 Int Act” value is listed as 0.8.

Turning to `O=C(CCOCCc1ccc(Br)cc1)N(CCNCCc1ccc(O)c2[nH]c(=O)sc12)CCc1ccccc1` [Example 10, 3-[2-(4-Bromophenyl)ethoxy]-N-[2-[2-(4-hydroxy-2-oxo-3H-benzothiazol-7-yl)ethylamino]ethyl]-N-phenethyl-propanamide], on Adrenergic β2 [2], the EC50 was 0.00794 µM and the “β2 Int Act” value is given as 0.7. Also, at Adrenergic β2 [1], the EC50 was 0.00501 µM and the “Intrinsic Activity” value amounted to 0.6.

In the case of `O=C(CCOCCc1ccccc1)N(CCNCCc1ccc(O)c2[nH]c(=O)sc12)Cc1cccnc1` [Example 5, N-[2-[2-(4-Hydroxy-2-oxo-3H-benzothiazol-7-yl)ethylamino]ethyl]-3-phenethyloxy-N-(3-pyridylmethyl)propanamide], on Adrenergic β2 [1], the EC50 is 0.0126 µM and the “Intrinsic Activity” value is reported as 0.8.

For `CCN(CC)CCN(CCNCCc1ccc(O)c2[nH]c(=O)sc12)C(=O)CCOCCc1cccc(C(F)(F)F)c1` [Example 25, N-(2-Diethylaminoethyl)-N-{2-[2-(4-hydroxy-2-oxo-2,3-dihydro-1,3-benzothiazol-7-yl)ethylamino]ethyl}-3-[2-(3-trifluoromethylphenyl)ethoxy]propanamide dihydrobromide], on Adrenergic β2 [2], the EC50 is 0.0631 µM and the “β2 Int Act” value worked out at 0.8.

On to `CCN(CC)CCN(CCNCCc1ccc(O)c2[nH]c(=O)sc12)C(=O)CCOCCc1c(Cl)cccc1Cl` [Example 24, 3-[2-(2,6-Dichlorophenyl)ethoxy]-N-(2-diethylaminoethyl)-N-{2-[2-(4-hydroxy-2-oxo-2,3-dihydro-1,3-benzothiazol-7-yl)ethylamino]ethyl}propanamide dihydrobromide], for which, on Adrenergic β2 [2], the EC50 was 0.1 µM and the “β2 Int Act” value is reported as 0.9.

As to `CCN(CC)CCN(CCNCCc1ccc(O)c2[nH]c(=O)sc12)C(=O)CCOCCc1ccccc1` [Example 12, N-[2-(Diethylamino)ethyl]-N-(2-{[2-(4-hydroxy-2-oxo-2,3-dihydro-1,3-benzothiazol-7-yl)ethyl]amino}ethyl)-3-(2-phenylethoxy)propanamide], at Adrenergic β2 [2], the EC50 is 0.00794 µM and the “β2 Int Act” value is recorded as 0.8. Moreover, on Adrenergic β2 [1], the EC50 is 0.0158 µM and the “Intrinsic Activity” value came to 0.8.

As to `CN(C)CCN(CCNCCc1ccc(O)c2[nH]c(=O)sc12)C(=O)CCOCCc1ccccc1` [Example 14, N-[2-(Dimethylamino)ethyl]-N-(2-{[2-(4-hydroxy-2-oxo-2,3-dihydro-1,3-benzothiazol-7-yl)ethyl]amino}ethyl)-3-(2-phenylethoxy)propanamide], at Adrenergic β2 [2], the EC50 was 0.00794 µM and the “β2 Int Act” value was found to be 1.

Take `O=c1[nH]c2c(O)ccc(CCNCCN(CCCOCCc3ccccc3)CCc3ccccc3)c2s1` [Example 13, 4-Hydroxy-7-[2-({2-[[3-(2-phenylethoxy)propyl](2-phenylethyl)amino]ethyl}amino)-ethyl]-1,3-benzothiazol-2(3H)-one]: on Adrenergic β2 [2], the EC50 is 0.0631 µM and the “β2 Int Act” value amounted to 0.5.

Regarding `CC(C)(C)OC(=O)N1CCC(CN(CCNCCc2ccc(O)c3[nH]c(=O)sc23)C(=O)CCOCCc2ccccc2)CC1` [Example 1, tert-Butyl 4-({(2-{[2-(4-hydroxy-2-oxo-2,3-dihydro-1,3-benzothiazol-7-yl)ethyl]amino}ethyl)[3-(2-phenylethoxy)propanoyl]amino}methyl)piperidine-1-carboxylate], at Adrenergic β2 [1], the EC50 was 0.0631 µM and the “Intrinsic Activity” value is 0.7.

As for `CCN(CC)CCN(CCNCCc1ccc(O)c2[nH]c(=O)sc12)C(=O)CCOCCc1cc(OC)ccc1Br` [Example 21, 3-[2-(2-Bromo-5-methoxyphenyl)ethoxy]-N-[2-(diethylamino)ethyl]-N-(2-{[2-(4-hydroxy-2-oxo-2,3-dihydro-1,3-benzothiazol-7-yl)ethyl]amino}ethyl)propanamide dihydrobromide], at Adrenergic β2 [2], the EC50 was 0.0794 µM and the “β2 Int Act” value worked out at 0.6.
